Data as given in publication PMC12405493, “Selective ubiquitination of drug-like small molecules by the ubiquitin ligase HUWE1” (Nature Communications, 2025).

Columns and labels:
HUWE1^FL = biological target: T1, HUWE1^FL (Homo sapiens, UniProt Q7Z6Z7); assay: HUWE1^FL multi-turnover ubiquitination reactions without protein substrate (autoubiquitination, free Ub chains); assay type: biochemical; conditions: without protein substrate; varying concentrations
T1 construct: made in house; host or cells: HEK293T (transient transfection, anti-Flag purification, SEC)
Procedure: (§1) HUWE1^HECT multi-turnover ubiquitination reactions were performed for 30 minutes (unless stated otherwise) with 200 nM UBA1, 5 μM UBE2L3 or UBE2D3 (as specified), 1 μM HUWE1^HECT and 30 μM Ub in 25 mM HEPES (pH 7.5), 100 mM NaCl, 3 mM MgCl2, and 0.5 mM TCEP. HUWE1^FL multi-turnover ubiquitination reactions included 50 nM UBA1, 2.5 μM UBE2L3, 0.05 μM HUWE1^FL, 0.5 μM MCL1 (or 0.5 μM H2B or 1 μM FOXP3) and 20 μM Ub in 20 mM HEPES (pH 7.5), 100 mM NaCl, 3 mM MgCl2, and 0.5 mM TCEP. All multi-turnover reactions were started by the addition of 1 mM ATP, incubated at 30 °C, quenched with SDS-loading dye. If not stated otherwise, HUWE1^FLautoubiquitination reactions were incubated for 20 minutes. Substrate ubiquitination reactions with MCL1 or H2B were incubated for 10 and 20 min, respectively; those with FOXP3 for 30 min. Those reactions that were monitored by fluorescence contained a fluorescent Ub tracer (IRDye 800CW maleimide; LI-COR)[55] and were monitored using an Odyssey CLx scanner (LI-COR), followed by Coomassie staining. In the fluorescence images, only those marker bands are labeled (in kDa) that are visible by fluorescence; all marker bands are labeled in the Coomassie-stained images. Statistical analyses were performed with Prism 9 v.9.3.1 (GraphPad).

[1] = biological target: T2, HUWE1^FL (substrate MCL1) (Homo sapiens, UniProt Q7Z6Z7); assay: HUWE1^FL-driven MCL1 ubiquitination reactions; assay type: biochemical; conditions: varying concentrations
T2 construct: made in house; host or cells: HEK293T (transient transfection, anti-Flag purification, SEC)
Procedure: as §1

HUWE1^HECT = biological target: T3, HUWE1^HECT (Homo sapiens, UniProt Q7Z6Z7); assay: Analytical SEC / intact protein MS of HUWE1^HECT-driven compound ubiquitination; assay type: biochemical; conditions: for Compound ubiquitination by HUWE1^HECT (SEC, intact protein MS): + ATP, WT Ub; for Inhibitor ubiquitination activity of HUWE1^HECT compared with other HECT domains: SEC, monoubiquitinated compound, HUWE1^HECT signal normalized to 1
T3 construct: the isolated HECT domain of HUWE1 (HUWE1^HECT); made in house
T3 sequence (Q7Z6Z7 3993-4374): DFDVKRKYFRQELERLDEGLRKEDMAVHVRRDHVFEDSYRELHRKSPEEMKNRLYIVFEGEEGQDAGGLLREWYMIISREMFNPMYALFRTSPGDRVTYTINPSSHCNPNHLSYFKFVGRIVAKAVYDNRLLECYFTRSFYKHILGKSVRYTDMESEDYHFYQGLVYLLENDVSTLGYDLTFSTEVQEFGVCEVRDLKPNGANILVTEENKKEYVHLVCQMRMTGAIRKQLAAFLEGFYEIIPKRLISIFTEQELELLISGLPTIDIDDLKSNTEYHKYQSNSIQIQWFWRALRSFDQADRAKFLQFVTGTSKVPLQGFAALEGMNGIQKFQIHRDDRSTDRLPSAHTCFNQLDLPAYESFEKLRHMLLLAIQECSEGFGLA
Procedure: HUWE1^HECT multi-turnover ubiquitination reactions were performed with 500 nM UBA1, 5 μM UBE2L3, 5 μM HUWE1^HECT and 100 μM Ub in 20 mM HEPES (pH 7.5), 100 mM NaCl and 0.5 mM TCEP in the presence of 1 mM ATP and 3 mM MgCl2. After 15 min incubation at 30 °C, the mixture was injected into a Superdex 75 Increase 3.2/300 column (Cytiva), equilibrated in 25 mM HEPES (pH 7.5), 100 mM NaCl, and 0.5 mM TCEP at 4 °C. Chromatograms were analyzed and peaks integrated with Unicorn v.7.9.02440 (Cytiva). Data were plotted with Prism v.9.3.1 (GraphPad).
Intact protein LC/MS: protein molecular weights (MWs) were determined by LC/MS on a nanoflow chromatography system (Dionex U3000 nanoRSLC), hyphenated to a hybrid quadrupole/orbitrap mass spectrometer (Q Exactive HF) with a NanoFlex ion source and controlled by Xcalibur v.2.4 (all Thermo Fisher Scientific). Proteins were dissolved in 2% (v/v) acetonitrile (ACN), 0.1% (v/v) formic acid (FA) to a concentration of 100 fmol μL^−1. For each analysis, 500 fmol were enriched on a pre-column (0.15 ×20 mm, Reprosil-Pur120 C18-AQ 5 μm; Dr. Maisch GmbH) and separated on an analytical RP-C18 column (0.075 mm×200 mm, Reprosil-Pur 120 C18-AQ; 1.9 μm, Dr. Maisch GmbH), using a 23-min linear gradient of 10–80% (v/v) ACN/0.1% (v/v) FA at 300 nl min^−1. MS data were acquired in full MS mode across the 500–1800 m/z-range at a resolution setting of 120,000 FWHM, an AGC target of 1*10e6 and a maximum fill time of 200 ms. Charge state deconvolution and MW representation were performed in Freestyle v.1.9 (Thermo Fisher Scientific), using default settings for high-resolution data.

colorectal cancer cells = test system: colorectal cancer cells; design: method as in PMID 25253726; conditions: cited from earlier work
UBA1 (E1) / UBE2L3 (E2) = biological target: T4, UBA1 (E1) / UBE2L3 (E2) (Homo sapiens, UniProt P22314+P68036); assay: E1-driven Ub transfer to UBE2L3 (E3-free reaction); assay type: biochemical; conditions: Supplementary Fig. 1f, g
T4 construct: made in house
Procedure: E3-free multi-turnover ubiquitination reactions to monitor E1 and E2 activities contained 1 μM UBA1, 5 μM UBE2L3, 100 μM Ub, 2 mM ATP and 10 mM MgCl2 in 25 mM HEPES (pH 7.4), and 0.2 mM TCEP. Reactions were incubated at 30 °C for 10 min (or otherwise, as specified) and quenched with 50 mM EDTA, followed by the addition of SDS-loading dye. Single-turnover E2~Ub discharge assays were performed similarly to previous studies. In short, 1 μM UBA1, 5 μM UBE2L3, and 100 μM Ub were pre-incubated with 2 mM ATP and 10 mM MgCl2 in 25 mM HEPES (pH 7.4) at 30 °C for 30 min, diluted 4-fold, and quenched with 50 mM EDTA. Thereafter, 1.2 μM of the UBE2L3~Ub product was incubated with 5 μM HUWE1^HECT at 30 °C for 1 min.

[2] = test system: HECT domains of E6AP (UBE3A), HACE1, NEDD4, and UBE3C; assay: Analytical SEC of compound ubiquitination by other HECT domains; assay type: biochemical, human

T2 sequence (Q7Z6Z7 whole entry): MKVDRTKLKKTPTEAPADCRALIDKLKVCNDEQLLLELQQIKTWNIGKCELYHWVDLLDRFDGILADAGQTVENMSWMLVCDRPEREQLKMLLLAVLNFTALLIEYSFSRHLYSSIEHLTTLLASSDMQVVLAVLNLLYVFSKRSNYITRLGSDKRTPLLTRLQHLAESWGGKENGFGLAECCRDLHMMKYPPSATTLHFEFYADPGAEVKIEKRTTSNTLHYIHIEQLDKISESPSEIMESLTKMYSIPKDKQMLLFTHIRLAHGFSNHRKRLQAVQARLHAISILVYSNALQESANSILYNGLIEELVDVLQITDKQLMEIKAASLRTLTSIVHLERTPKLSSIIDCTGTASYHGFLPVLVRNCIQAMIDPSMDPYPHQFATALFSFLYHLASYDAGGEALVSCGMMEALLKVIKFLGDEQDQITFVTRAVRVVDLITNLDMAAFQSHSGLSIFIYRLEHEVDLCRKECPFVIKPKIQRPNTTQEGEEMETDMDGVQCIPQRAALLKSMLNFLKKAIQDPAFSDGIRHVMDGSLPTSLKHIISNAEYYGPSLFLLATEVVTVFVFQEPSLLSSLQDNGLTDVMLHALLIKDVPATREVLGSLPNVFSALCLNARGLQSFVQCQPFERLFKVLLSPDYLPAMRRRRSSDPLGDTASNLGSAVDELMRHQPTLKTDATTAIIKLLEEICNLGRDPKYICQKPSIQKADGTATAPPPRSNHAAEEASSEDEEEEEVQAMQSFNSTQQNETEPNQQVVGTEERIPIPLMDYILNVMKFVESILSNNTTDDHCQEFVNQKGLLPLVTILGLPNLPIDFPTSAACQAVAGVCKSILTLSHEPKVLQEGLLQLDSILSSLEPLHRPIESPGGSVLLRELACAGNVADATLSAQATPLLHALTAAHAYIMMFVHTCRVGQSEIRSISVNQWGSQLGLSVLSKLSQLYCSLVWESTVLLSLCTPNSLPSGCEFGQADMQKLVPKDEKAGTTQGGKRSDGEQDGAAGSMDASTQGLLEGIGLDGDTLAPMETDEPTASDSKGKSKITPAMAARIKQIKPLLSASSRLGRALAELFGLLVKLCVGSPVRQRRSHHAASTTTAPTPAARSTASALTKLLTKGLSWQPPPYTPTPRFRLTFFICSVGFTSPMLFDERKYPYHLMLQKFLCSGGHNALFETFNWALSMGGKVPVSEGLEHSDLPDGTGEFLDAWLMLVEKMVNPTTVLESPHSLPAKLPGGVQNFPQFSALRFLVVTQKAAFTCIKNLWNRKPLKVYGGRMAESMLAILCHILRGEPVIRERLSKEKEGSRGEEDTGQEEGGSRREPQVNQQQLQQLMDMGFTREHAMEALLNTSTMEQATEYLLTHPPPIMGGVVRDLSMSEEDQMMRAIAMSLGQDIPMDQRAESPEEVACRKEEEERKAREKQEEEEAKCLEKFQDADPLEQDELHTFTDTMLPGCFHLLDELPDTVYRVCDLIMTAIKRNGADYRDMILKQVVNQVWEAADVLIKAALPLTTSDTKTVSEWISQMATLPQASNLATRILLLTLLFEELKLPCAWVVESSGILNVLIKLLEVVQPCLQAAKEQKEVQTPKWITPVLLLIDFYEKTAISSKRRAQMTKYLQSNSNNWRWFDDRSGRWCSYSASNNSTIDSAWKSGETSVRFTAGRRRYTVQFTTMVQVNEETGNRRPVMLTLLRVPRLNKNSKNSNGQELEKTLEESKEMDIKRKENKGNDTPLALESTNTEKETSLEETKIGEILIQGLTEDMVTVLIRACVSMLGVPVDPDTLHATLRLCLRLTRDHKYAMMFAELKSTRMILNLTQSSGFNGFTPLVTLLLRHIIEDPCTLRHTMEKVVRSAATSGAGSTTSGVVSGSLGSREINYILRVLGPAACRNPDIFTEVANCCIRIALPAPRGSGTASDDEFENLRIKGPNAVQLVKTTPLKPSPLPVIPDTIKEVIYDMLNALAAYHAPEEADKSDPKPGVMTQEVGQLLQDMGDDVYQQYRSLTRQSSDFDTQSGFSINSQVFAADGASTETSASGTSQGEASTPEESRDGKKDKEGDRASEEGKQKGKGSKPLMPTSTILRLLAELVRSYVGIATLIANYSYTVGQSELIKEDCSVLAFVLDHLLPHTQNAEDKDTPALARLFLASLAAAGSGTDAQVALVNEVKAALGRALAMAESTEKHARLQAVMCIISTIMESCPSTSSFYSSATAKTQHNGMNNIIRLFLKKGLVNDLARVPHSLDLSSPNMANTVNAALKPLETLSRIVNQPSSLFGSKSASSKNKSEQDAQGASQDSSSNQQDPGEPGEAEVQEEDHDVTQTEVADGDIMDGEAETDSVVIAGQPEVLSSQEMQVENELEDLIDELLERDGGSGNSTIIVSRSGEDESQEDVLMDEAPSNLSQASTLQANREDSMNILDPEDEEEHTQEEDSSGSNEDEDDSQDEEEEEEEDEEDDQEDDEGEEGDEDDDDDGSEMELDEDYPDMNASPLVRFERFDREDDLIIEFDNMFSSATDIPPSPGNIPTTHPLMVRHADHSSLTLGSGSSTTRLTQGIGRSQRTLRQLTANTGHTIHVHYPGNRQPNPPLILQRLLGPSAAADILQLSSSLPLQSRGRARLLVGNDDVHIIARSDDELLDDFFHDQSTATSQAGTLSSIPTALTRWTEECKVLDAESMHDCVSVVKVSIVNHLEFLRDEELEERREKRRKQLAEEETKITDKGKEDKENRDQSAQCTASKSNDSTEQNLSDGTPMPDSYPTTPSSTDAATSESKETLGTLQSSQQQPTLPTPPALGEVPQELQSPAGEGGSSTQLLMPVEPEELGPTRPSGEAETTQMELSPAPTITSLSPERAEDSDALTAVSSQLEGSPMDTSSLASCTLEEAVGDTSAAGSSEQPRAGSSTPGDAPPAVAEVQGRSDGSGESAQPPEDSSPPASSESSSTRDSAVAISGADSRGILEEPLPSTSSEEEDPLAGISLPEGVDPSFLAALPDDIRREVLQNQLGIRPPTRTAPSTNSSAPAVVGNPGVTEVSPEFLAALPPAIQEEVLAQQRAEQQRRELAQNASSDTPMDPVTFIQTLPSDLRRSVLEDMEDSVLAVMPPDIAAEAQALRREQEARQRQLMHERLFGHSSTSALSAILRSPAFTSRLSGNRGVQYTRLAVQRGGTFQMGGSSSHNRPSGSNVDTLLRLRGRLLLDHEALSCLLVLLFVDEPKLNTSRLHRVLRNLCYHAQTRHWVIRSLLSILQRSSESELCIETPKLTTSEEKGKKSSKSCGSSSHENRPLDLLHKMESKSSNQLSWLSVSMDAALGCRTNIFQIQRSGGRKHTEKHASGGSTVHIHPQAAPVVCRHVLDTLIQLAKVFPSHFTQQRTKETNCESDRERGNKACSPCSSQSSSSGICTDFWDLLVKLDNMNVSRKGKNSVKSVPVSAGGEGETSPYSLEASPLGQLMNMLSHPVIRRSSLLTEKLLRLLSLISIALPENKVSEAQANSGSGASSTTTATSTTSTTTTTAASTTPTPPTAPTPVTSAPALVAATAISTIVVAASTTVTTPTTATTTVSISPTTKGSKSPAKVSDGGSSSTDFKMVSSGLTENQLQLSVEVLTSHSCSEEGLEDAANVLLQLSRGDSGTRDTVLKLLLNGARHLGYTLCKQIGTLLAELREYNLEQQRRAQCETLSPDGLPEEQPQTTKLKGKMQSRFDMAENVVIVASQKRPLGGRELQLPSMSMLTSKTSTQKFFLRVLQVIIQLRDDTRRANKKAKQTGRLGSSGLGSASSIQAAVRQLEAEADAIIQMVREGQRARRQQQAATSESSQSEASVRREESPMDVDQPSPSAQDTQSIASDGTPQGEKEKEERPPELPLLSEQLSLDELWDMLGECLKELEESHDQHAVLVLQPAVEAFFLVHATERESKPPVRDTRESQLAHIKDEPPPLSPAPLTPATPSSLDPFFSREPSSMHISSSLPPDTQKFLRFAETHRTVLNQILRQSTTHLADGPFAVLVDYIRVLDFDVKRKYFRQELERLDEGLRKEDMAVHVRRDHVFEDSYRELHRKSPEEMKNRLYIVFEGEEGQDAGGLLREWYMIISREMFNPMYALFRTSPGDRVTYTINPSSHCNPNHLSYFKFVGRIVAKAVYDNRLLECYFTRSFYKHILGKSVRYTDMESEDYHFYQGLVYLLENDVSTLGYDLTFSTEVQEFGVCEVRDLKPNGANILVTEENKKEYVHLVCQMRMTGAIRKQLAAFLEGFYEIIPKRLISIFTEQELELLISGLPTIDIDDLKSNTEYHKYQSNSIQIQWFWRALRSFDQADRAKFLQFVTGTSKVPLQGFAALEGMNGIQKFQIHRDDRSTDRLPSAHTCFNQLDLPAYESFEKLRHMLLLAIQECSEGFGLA
T1 sequence (Q7Z6Z7 whole entry): as above

Cc1c(C(=O)Nc2ccc(CN)cc2)ncnc1N1CCC(C#N)(c2ccccc2)CC1 [BI8622]
Inhibition of HUWE1^FL protein ubiquitination activity (E3 autoubiquitination, free Ub chain formation) (HUWE1^FL): inhibit the protein ubiquitination activity of the ligase in a dose-dependent manner | Inhibition of HUWE1^FL-driven MCL1 ubiquitination [1]: inhibit the protein ubiquitination activity of the ligase in a dose-dependent manner | Compound ubiquitination by HUWE1^HECT (SEC, intact protein MS) (HUWE1^HECT; 20 μM compound): assigned to the respective monoubiquitinated compound by intact protein MS | Inhibitor ubiquitination activity of HUWE1^HECT compared with other HECT domains (HUWE1^HECT): substantially higher activity for HUWE1^HECT than for the other HECT domains | Cytotoxic effects (colorectal cancer cells): selective cytotoxic effects | Ub transfer from the E1 to the E2 (UBA1 (E1) / UBE2L3 (E2)): nor do they perturb the preceding Ub transfer from the E1 to the E2 | Compound ubiquitination by other HECT domains [2]: certain compound-directed activities were detected for all tested HECT domains

NCc1cccc(CNc2ncnc3c(N4CCN(Cc5ccccc5)CC4)ncnc23)c1 [BI8626]
Inhibition of HUWE1^FL protein ubiquitination activity (E3 autoubiquitination, free Ub chain formation) (HUWE1^FL): inhibit the protein ubiquitination activity of the ligase in a dose-dependent manner | Inhibition of HUWE1^FL-driven MCL1 ubiquitination [1]: inhibit the protein ubiquitination activity of the ligase in a dose-dependent manner | Compound ubiquitination by HUWE1^HECT (SEC, intact protein MS) (HUWE1^HECT; 20 μM compound): assigned to the respective monoubiquitinated compound by intact protein MS | Compound ubiquitination by HUWE1^HECT (SEC) (HUWE1^HECT; 20 μM compound, UbΔGG (residues 1–74) instead of WT Ub): No compound ubiquitination occurred | Inhibitor ubiquitination activity of HUWE1^HECT compared with other HECT domains (HUWE1^HECT): substantially higher activity for HUWE1^HECT than for the other HECT domains | Cytotoxic effects (colorectal cancer cells): selective cytotoxic effects | Ub transfer from the E1 to the E2 (UBA1 (E1) / UBE2L3 (E2)): nor do they perturb the preceding Ub transfer from the E1 to the E2 | Compound ubiquitination by other HECT domains [2]: certain compound-directed activities were detected for all tested HECT domains
